Assay results taken from patent US10815205B2, “Amide-substituted phenyltriazole derivatives and uses thereof” (BAYER PHARMA AKTIENGESELLSCHAFT, priority 2016, dated 2020).

How the values were obtained:
human V1a receptor = molecular target: T1, human V1a receptor (Homo sapiens, UniProt P37288); experiment: Cellular in vitro assay for vasopressin receptor activity, V1a receptor cell line (aequorin luminescence); assay type: cell-based; details: Table 1A; for IC50: CHO cell line transfected with human V1a receptor, [Arg8]-vasopressin at EC50, read-out: IC50 hV1a; for ratio IC50 hV2/hV1a: selectivity V1a over V2
T1 construct: expressed in transfected cells; host or cells: CHO K1 (ATCC), also stably transfected with a modified aequorin
T1 sequence (P37288 whole entry): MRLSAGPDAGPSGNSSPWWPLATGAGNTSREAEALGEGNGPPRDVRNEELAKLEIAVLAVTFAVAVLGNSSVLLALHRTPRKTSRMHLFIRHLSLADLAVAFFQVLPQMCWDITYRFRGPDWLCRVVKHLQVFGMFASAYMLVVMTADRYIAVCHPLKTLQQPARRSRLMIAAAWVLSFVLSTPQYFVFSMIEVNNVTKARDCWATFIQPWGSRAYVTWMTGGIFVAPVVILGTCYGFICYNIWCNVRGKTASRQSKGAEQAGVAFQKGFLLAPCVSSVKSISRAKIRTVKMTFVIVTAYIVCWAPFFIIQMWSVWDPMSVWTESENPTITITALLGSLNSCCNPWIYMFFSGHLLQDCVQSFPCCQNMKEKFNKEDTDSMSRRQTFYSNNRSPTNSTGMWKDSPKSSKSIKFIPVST
Procedure: (§1) B-1. Cellular In Vitro Assay for Determining Vasopressin Receptor Activity
(§2) The identification of agonists and antagonists of the V1a and V2 vasopressin receptors from humans, rats and dogs as well as the quantification of the activity of the compounds of the invention is carried out using recombinant cell lines. These cell lines originally derive from a hamster's ovary epithelial cell (Chinese Hamster Ovary, CHO K1, ATCC: American Type Culture Collection, Manassas, Va. 20108, USA). The test cell lines constitutively express the human, rat or dog V1a or V2 receptors. In case of the Gαq-coupled V1a receptors, cells are also stably transfected with a modified form of the calcium-sensitive photoproteins aequorin (human and rat V1a) or obe-lin (dog V1a), which, after reconstitution with the cofactor coelenterazine, emit light when there are increases in free calcium concentrations [Rizzuto R, Simpson A W, Brini M, Pozzan T, Nature 358, 325-327 (1992); Illarionov B A, Bondar V S, Illarionova V A, Vysotski E S, Gene 153 (2), 273-274 (1995)]. The resulting vasopressin receptor cells react to stimulation of the recombinantly expressed V1a receptors by intracellular release of calcium ions, which can be quantified by the resulting photoprotein luminescence. The Gs-coupled V2 receptors are stably transfected into cell lines expressing the gene for firefly luciferase under control of a CRE-responsible promoter. Activation of V2 receptors induces the activation of the CRE-responsive promoter via cAMP increase, thereby inducing the expression of firefly luciferase. The light emitted by photoproteins of V1a cell lines as well as the light emitted by firefly luciferase of V2 cell lines corresponds to the activation or inhibition of the respective vasopressin receptor. The bioluminescence of the cell lines is detected using a suitable luminometer [Milligan G, Marshall F, Rees S, Trends in Pharmacological Sciences 17, 235-237 (1996)].
Vasopressin V1a Receptor Cell Lines:
On the day before the assay, the cells are plated out in culture medium (DMEM/F12, 2% FCS, 2 mM glutamine, 10 mM HEPES, 5 μg/ml coelenterazine) in 384-well microtiter plates and kept in a cell incubator (96% humidity, 5% v/v CO2, 37° C.). On the day of the assay, test compounds in various concentrations are placed for 10 minutes in the wells of the microtiter plate before the agonist [Arg^8]-vasopressin at EC50 concentration is added. The resulting light signal is measured immediately in a luminometer.

human V2 receptor = molecular target: T2, human V2 receptor (Homo sapiens, UniProt P30518); experiment: Cellular in vitro assay for vasopressin receptor activity, V2 receptor cell line (CRE-luciferase); assay type: cell-based; details: Table 1A; CHO cell line transfected with human V2 receptor; [Arg8]-vasopressin at EC50; read-out: IC50 hV2
T2 construct: expressed in transfected cells; host or cells: CHO K1 (ATCC) expressing firefly luciferase under a CRE-responsive promoter
T2 sequence (P30518 whole entry): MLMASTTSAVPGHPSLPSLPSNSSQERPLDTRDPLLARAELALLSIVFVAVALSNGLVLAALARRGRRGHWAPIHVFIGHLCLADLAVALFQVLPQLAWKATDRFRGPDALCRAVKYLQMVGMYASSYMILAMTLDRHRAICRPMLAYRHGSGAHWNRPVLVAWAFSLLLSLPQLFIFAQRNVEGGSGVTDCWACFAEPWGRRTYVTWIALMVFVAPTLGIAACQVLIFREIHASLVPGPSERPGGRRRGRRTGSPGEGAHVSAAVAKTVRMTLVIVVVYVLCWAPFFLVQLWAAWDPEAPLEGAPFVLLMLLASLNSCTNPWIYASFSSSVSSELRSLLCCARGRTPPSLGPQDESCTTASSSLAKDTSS
Procedure: as §1, §2
Vasopressin V2 Receptor Cell Lines:
On the day before the assay, the cells are plated out in culture medium (DMEM/F12, 2% FCS, 2 mM glutamine, 10 mM HEPES) in 384-well microtiter plates and kept in a cell incubator (96% humidity, 5% v/v CO2, 37° C.). On the day of the assay, test compounds in various concentrations and the agonist [Arg^8]-vasopressin at EC50 concentration are added together to the wells, and plates are incubated for 3 hours in a cell incubator. Upon addition of the cell lysis reagent Triton™ and the substrate luciferin, luminescence of firefly luciferase is measured in a luminometer.

IC50 (human V1a receptor)	ratio IC50 hV2/hV1a (human V1a receptor)	IC50 (human V2 receptor)	SMILES
1.25 nM	60.4	75.5 nM	NC(=O)c1nc(Cn2nc(-c3ccc(Cl)cc3)n(C[C@H](O)C(F)(F)F)c2=O)nn1-c1ccccc1OC(F)(F)F [Example 3, 3-({3-(4-Chlorophenyl)-5-oxo-4-[(2S)-3,3,3-trifluoro-2-hydroxypropyl]-4,5-dihydro-1H-1,2,4-triazol-1-yl}methyl)-1-[2-(trifluoromethoxy)phenyl]-1H-1,2,4-triazole-5-carboxamide]
8.2 nM	108.5	890 nM	CCOc1ccccc1-n1nc(Cn2nc(-c3ccc(Cl)cc3)n(C[C@@H](O)C(F)(F)F)c2=O)nc1C(N)=O [Example 10, 3-({3-(4-Chlorophenyl)-5-oxo-4-[(2R)-3,3,3-trifluoro-2-hydroxypropyl]-4,5-dihydro-H-1,2,4-triazol-1-yl}methyl)-1-(2-ethoxyphenyl)-1H-1,2,4-triazole-5-carboxamide]
12.9 nM	75.6	975 nM	CNC(=O)c1ccccc1-n1nc(Cn2nc(-c3ccc(Cl)cc3)n(C[C@H](O)C(F)(F)F)c2=O)nc1C(N)=O [Example 6, 3-({3-(4-Chlorophenyl)-5-oxo-4-[(2S)-3,3,3-trifluoro-2-hydroxypropyl]-4,5-dihydro-1H-1,2,4-triazol-1-yl}methyl)-1-[2-(methylcarbamoyl)phenyl]-1H-1,2,4-triazole-5-carboxamide]
17.5 nM	40.7	712 nM	CS(=O)(=O)c1ccccc1-n1nc(Cn2nc(-c3ccc(Cl)cc3)n(C[C@H](O)C(F)(F)F)c2=O)nc1C(N)=O [Example 7, 3-({3-(4-Chlorophenyl)-5-oxo-4-[(2S)-3,3,3-trifluoro-2-hydroxypropyl]-4,5-dihydro-1H-1,2,4-triazol-1-yl}methyl)-1-[2-(methylsulfonyl)phenyl]-1H-1,2,4-triazole-5-carboxamide]
0.58 nM	41.4	23.9 nM	NC(=O)c1nc(Cn2nc(-c3ccc(Cl)cc3)n(C[C@H](O)C(F)(F)F)c2=O)nn1-c1ccccc1C(F)(F)F [Example 1, 3-({3-(4-Chlorophenyl)-5-oxo-4-[(2S)-3,3,3-trifluoro-2-hydroxypropyl]-4,5-dihydro-H-1,2,4-triazol-1-yl}methyl)-1-[2-(trifluoromethyl)phenyl]-1H-1,2,4-triazole-5-carboxamide]
9.65 nM	68.9	665 nM	NC(=O)c1nc(Cn2nc(-c3ccc(Cl)cc3)n(C[C@@H](O)C(F)(F)F)c2=O)nn1-c1ccccc1OC(F)(F)F [Example 4, 3-({3-(4-Chlorophenyl)-5-oxo-4-[(2R)-3,3,3-trifluoro-2-hydroxypropyl]-4,5-dihydro-1H-1,2,4-triazol-1-yl}methyl)-1-[2-(trifluoromethoxy)phenyl]-1H-1,2,4-triazole-5-carboxamide]
8.95 nM	11.9	106 nM	NC(=O)c1nc(Cn2nc(-c3ccc(Cl)cc3)n(CC(=O)C(F)(F)F)c2=O)nn1-c1ccccc1OC(F)(F)F [Example 9, 3-{[3-(4-chlorophenyl)-5-oxo-4-(3,3,3-trifluoro-2-oxopropyl)-4,5-dihydro-H-1,2,4-triazol-1-yl]methyl}-1-[2-(trifluoromethoxy)phenyl]-1H-1,2,4-triazole-5-carboxamide (ketone form) or 3-{[3-(4-chlorophenyl)-5-oxo-4-(3,3,3-trifluoro-2,2-dihydroxypropyl)-4,5-dihydro-1H-1,2,4-triazol-1-yl]methyl}-1-[2-(trifluoromethoxy)phenyl]-1H-1,2,4-triazole-5-carboxamide (hydrate form)]
1.85 nM	18.2	33.7 nM	NC(=O)c1nc(Cn2nc(-c3ccc(Cl)cc3)n(CC(=O)C(F)(F)F)c2=O)nn1-c1ccccc1C(F)(F)F [Example 8, 3-{[3-(4-chlorophenyl)-5-oxo-4-(3,3,3-trifluoro-2-oxopropyl)-4,5-dihydro-H-1,2,4-triazol-1-yl]methyl}-1-[2-(trifluoromethyl)phenyl]-1H-1,2,4-triazole-5-carboxamide (ketone form) or 3-{[3-(4-chlorophenyl)-5-oxo-4-(3,3,3-trifluoro-2,2-dihydroxypropyl)-4,5-dihydro-H-1,2,4-triazol-1-yl]methyl}-1-[2-(trifluoromethyl)phenyl]-1H-1,2,4-triazole-5-carboxamide (hydrate form)]
2.35 nM	74.5	175 nM	NC(=O)c1nc(Cn2nc(-c3ccc(Cl)cc3)n(C[C@@H](O)C(F)(F)F)c2=O)nn1-c1ccccc1C(F)(F)F [Example 2, 3-({3-(4-Chlorophenyl)-5-oxo-4-[(2R)-3,3,3-trifluoro-2-hydroxypropyl]-4,5-dihydro-1H-1,2,4-triazol-1-yl}methyl)-1-[2-(trifluoromethyl)phenyl]-1H-1,2,4-triazole-5-carboxamide]
1.6 nM	24.1	38.5 nM	CCOc1ccccc1-n1nc(Cn2nc(-c3ccc(Cl)cc3)n(C[C@H](O)C(F)(F)F)c2=O)nc1C(N)=O [Example 5, 3-({3-(4-Chlorophenyl)-5-oxo-4-[(2S)-3,3,3-trifluoro-2-hydroxypropyl]-4,5-dihydro-1H-1,2,4-triazol-1-yl}methyl)-1-(2-ethoxyphenyl)-1H-1,2,4-triazole-5-carboxamide]
